In publication PMC3347531, “Mutation of Residue βF71 of Escherichia coli Penicillin Acylase Results in Enhanced Enantioselectivity and Improved Catalytic Properties” (Acta Naturae, 2009):

Target: T1, penicillin acylase (PA) from Escherichia coli (Escherichia coli, UniProt P06875)
T1 construct: gene pac; mature alpha/beta heterodimer processed from one precursor; recombinant from plasmid pEC in E. coli, purified
Assay: initial rate hydrolysis, enantioselectivity from kcat/Km ratio
Assay type: biochemical

T1 sequence (P06875 27-235): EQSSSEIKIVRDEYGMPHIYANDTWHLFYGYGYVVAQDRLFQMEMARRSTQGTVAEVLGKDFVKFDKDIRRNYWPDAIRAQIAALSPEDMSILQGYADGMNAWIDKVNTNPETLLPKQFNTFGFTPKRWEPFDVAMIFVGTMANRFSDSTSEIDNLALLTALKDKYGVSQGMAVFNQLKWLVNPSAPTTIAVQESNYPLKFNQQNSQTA
T1 sequence (P06875 290-846): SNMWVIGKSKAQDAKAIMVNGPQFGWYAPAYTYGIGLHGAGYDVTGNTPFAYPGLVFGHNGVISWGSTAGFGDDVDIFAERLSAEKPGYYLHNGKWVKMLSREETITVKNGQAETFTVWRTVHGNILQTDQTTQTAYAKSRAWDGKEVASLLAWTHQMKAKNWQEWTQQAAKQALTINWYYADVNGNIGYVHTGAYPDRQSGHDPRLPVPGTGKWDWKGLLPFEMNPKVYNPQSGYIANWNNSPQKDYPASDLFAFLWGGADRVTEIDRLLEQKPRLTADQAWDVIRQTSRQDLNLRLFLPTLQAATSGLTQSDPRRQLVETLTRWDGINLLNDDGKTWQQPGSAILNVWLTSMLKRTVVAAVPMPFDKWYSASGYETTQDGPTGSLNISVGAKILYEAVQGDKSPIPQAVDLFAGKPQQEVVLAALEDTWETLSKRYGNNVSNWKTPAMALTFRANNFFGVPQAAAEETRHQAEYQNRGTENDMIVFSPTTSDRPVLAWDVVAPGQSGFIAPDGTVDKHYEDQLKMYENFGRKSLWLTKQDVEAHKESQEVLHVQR

For `O=C(Cc1ccccc1)N[C@H](C(=O)O)c1ccccc1` [N-phenylacetyl-L-phenylglycine], the “initial rate hydrolysis, enantioselectivity from kcat/Km ratio” value was “WT PA exhibits already a very good chiral discrimination of N-phenylacetyl-phenylglycine enantiomers”.
